Measured values reported in publication PMC3812159, “A Comparative Analysis of the Ubiquitination Kinetics of Multiple Degrons to Identify an Ideal Targeting Sequence for a Proteasome Reporter” (PLoS ONE, 2013).
Read-outs that look alike come from different tables or passages of the source. Residues, ends and D or L forms follow the SMILES beside them. *: point of attachment. 5FAM = O=C1OC2(c3ccc(O)cc3Oc3cc(O)ccc32)c2ccc(C(=O)*)cc21

Assays:
[1] = test system: endogenous proteases and peptidases found in the S100 lysates; experiment: Peptidase-dependent degradation rate constants from the multi-monoubiquitination model; conditions: values multiplied by 10^3; for k5, rate constant for peptidase-dependent degradation of unmodified parent substrate: HeLa S100 cytosolic lysates 2 mg/mL, proteasome inhibited by 100 µM MG-132, pH 7.6, 37°C, 12-14 µM peptide, model-fitted (MCMC), degraded substrate not measured; for k6, rate constant for peptidase-dependent degradation of mono-ubiquitinated substrate / k7, rate constant for peptidase-dependent degradation of di-ubiquitinated substrate / k8, rate constant for peptidase-dependent degradation of tri-ubiquitinated substrate / k9, rate constant for peptidase-dependent degradation of tetra-ubiquitinated substrate: as k5, HeLa S100 lysates, MG-132, 37°C, model-fitted
Procedure: (§1) The in vitro ubiquitination assay was carried out at the indicated times at 37°C in a total reaction volume of 25 µL containing assay buffer (10 mM Tris-HCl pH 7.6 and 5 mM MgCl2) with 2 mM DTT, 20 µg/mL ubiquitin aldehyde (Boston Biochem), 400 µg/mL methylated ubiquitin (Enzo Life Sciences), 1×ATP energy regenerating solution (ATP-ERS, Boston Biochem), 100 µM of the proteasome inhibitor MG-132 (EMD Chemicals), 2 mg/mL HeLa S100 cytosolic lysates as the source of E1, E2, and E3 enzymes, 750 ng of indicated peptide substrate, and inhibitors Complete ULTRA and PhosSTOP (Roche). Reactions were halted by addition of 2× tricine sample buffer (Bio-Rad) and subsequent boiling. Samples were loaded onto SDS page gels (precast 16.5% Mini PROTEAN Tris-Tricine, Bio-Rad) using 1× tris-tricine running buffer and visualized with a Typhoon Imager (GE Healthcare Life Sciences). Gels were quantified using ImageJ (US National Institute of Health) by comparing sample intensity to unreacted parent peptide intensity, which is not depicted in the gels.
(§2) Ubiquitin pull down assays were performed similarly to the in vitro ubiquitination assay as described above, with the exception of a total volume of 100 µL and 4.2 µg of peptide substrate. At the end of the indicated times, samples were incubated with Control-Agarose beads (LifeSensors), diluted in TBS-T buffer (20 mM Tris-HCl pH 8.0, 150 mM NaCl, and 0.1% v/v Tween-20), for 60 min on a tube rotator at 4°C. Samples were subsequently centrifuged at 1800×g for 5 min to pellet and remove control beads. The supernatant was transferred to solution of Agarose-TUBES1 (LifeSensors) diluted in TBS-T and incubated overnight on a tube rotator at 4°C. Ubiquitin-bound beads were washed 5× with TBS-T and then the samples were eluted off of the bead with 2× tricine sample buffer, boiled for 5 min, and then isolated by centrifugation for 5 min at 13000×g. Samples were loaded onto an SDS PAGE gel, electrophoresed, visualized and quantified as described above.
(§3) The series of ordinary differential equations were solved in MATLAB using ODE15s and the boundary conditions defined in equations S1–S6. Kinetic rate constants were determined using a Markov Chain Monte Carlo (MCMC) algorithm in MATLAB by minimizing the cumulative sum of the squared deviations (cSSD), as defined by equations S8–S9, between the calculated and experimental data similar to previous work by Cirit et. al. [23].
(§4) To accomplish this objective, a kinetic model was developed to describe the step-wise ubiquitination of the degron-based substrates. The goal of this model was to both determine the reaction kinetics for ubiquitin transfer to the degron-based substrates and distinguish polyubiquitination from multi-monoubiquitination. […] Each step in the reaction was described by a corresponding rate constant (k1–k9). Due to the presence of the deubiquitinating enzyme (DUB) inhibitor ubiquitin aldehyde, substrate deubiquitination was neglected. Further, the proteasome inhibitor MG-132 was added at an appropriate amount to neglect proteasome-mediated degradation of the substrates.

[2] = test system: TAZ-based substrate ubiquitination (a target of the SCF^βTrCP E3 ligase); experiment: Ubiquitin pull down of TAZ-based substrate with inhibitors of the E1-E3 cascade; type: biochemical; conditions: 2 hours at 37°C with inhibitor, gel, concentrations only in Figure 5b
Procedure: Figure 5 Variations in E3 ligase activity result in fluxuations in degron-based substrate ubiquitination. (A) To evaluate the impact of different levels of E3 ligase activity, the four top performing degron-based substrates (β-Catenin, Bonger, iNOS, and p53) were incubated in lysates from four different cell lines (HeLa, U937, THP-1, and HL60) in the ubiquitin pull down assay. Further, the assay was supplemented with wild type ubiquitin to examine polyubiquitin chain formation. All reaction mixtures were incubated for 2 hours at 37°C prior to continuation with the pull down assay. (B) The effects of a NEDD8 inhibitor (MLN-4924) and an E1 inhibitor (PYR-41) were examined on the TAZ-based substrate (a target of the SCF^βTrCP E3 ligase). The ubiquitin pull down was performed as previously described with the reactions incubated for 2 hours with the listed inhibitor concentrations at 37°C prior to continuation with the pull down assay. […]
To perform a more precise analysis of the impact of variations in E3 ligase activity on degron-based substrate ubiquitination and to identify any issues with peptide specificity, the second route of experimentation was the application of known inhibitors of the E1–E3 enzymatic cascade. […] To examine the effects of partially inhibiting SCF^βTrCP, TAZ-based substrate ubiquitination was assessed in the presence and absence of this inhibitor (Figure 5b).

[3] = test system: endogenous proteases and peptidases found in the S100 lysates
Procedure: as §1, §2, §3, §4

[4] = test system: HeLa S100 cytosolic lysates as the source of E1, E2, and E3 enzymes; experiment: Ubiquitin pull down assay with methylated ubiquitin, multi-monoubiquitination kinetic model; type: biochemical; conditions: for substrate ubiquitination, fluorescent intensity compared to unmodified substrate: ubiquitin pull down, methylated ubiquitin, time points up to 240 min, n = 3; for k1/k5, mono-ubiquitination vs. degradation of unmodified substrate: ratio of fitted rate constants, >1 favours ubiquitination, <1 degradation
Description: A second model based on substrate multi-monoubiquitination was developed and evaluated. This model assumed that the generation of di-, tri-, and tetra-ubiquitinated species was the result of multiple methylated ubiquitins being conjugated to the multiple available lysines found on the degron-based substrate (Figure 3a). As opposed to the polyubiquitination model, the multi-monoubiquitination model accurately fit the data for all eight degron-based substrates (Figure 3b–d, Figure S4 in File S1, Table 2). Using this model, kinetic rate constants for all ubiquitination (k1 for mono-, k2 for di-, k3 for tri-, and k4 for tetra-) and peptidase-dependent degradation steps (Table 2) were calculated. The multi-monoubiquitination model nicely corresponded to the observed results in Figure 2. […] The model also captured the preference for di-ubiquitination of the Cyclin D1 degron (k2 is two-fold greater than k1) and the equal preference of mono- and di-ubiquitination states found in the HIF-1α degron (k1 of 2.6 and k2 of 3.0). Further, the similar behavior and observed kinetics for IFNAR and TAZ degrons were mostly likely due to the fact that these degrons are recognized by the same E3 ligase, SCF^βTrCP (Table 1). To test the robustness of the multi-monoubiquitination model, a ninth substrate based on the degron from the protein β-Catenin was assessed. This substrate was selected because it is ubiquitinated by the same E3 ligase as TAZ and IFNAR1, SCF^βTrCP. The model accurately fit the data for the multi-monoubiquitination of the β-Catenin degron-based substrate with similar rate constants compared to the TAZ and IFNAR1-based substrates (Table 2). Finally, it was important to assess the validity of the model by addressing the relative goodness of fit between the experimental data and the model predictions as determined from the multi-monoubiquitination model. For this particular analysis it was decided to calculate the sample Pearson correlation coefficient (Eq. S10 in File S1), a widely used metric to measure the dependence between two variables. A correlation coefficient was calculated between the model predictions and experimental data for mono-, di-, tri-, and tetra-ubiquitinated substrate for all nine degron-based substrates (Table S1 in File S1). As per convention, a positive value approaching 1 corresponds to a very good fit, which is observed for all nine substrates indicating a good fit between model and data.

Row | Molecule | k5, rate constant for peptidase-dependent degradation of unmodified parent substrate [1] | k6, rate constant for peptidase-dependent degradation of mono-ubiquitinated substrate [1] | k7, rate constant for peptidase-dependent degradation of di-ubiquitinated substrate [1] | k8, rate constant for peptidase-dependent degradation of tri-ubiquitinated substrate [1] | k9, rate constant for peptidase-dependent degradation of tetra-ubiquitinated substrate [1] | effect of inhibitor on ubiquitination of the TAZ-based substrate [2] | k6, rate constant for peptidase-dependent degradation of mono-ubiquitinated substrate [3] | k7, rate constant for peptidase-dependent degradation of di-ubiquitinated substrate [3] | k8, rate constant for peptidase-dependent degradation of tri-ubiquitinated substrate [3] | k9, rate constant for peptidase-dependent degradation of tetra-ubiquitinated substrate [3] | substrate ubiquitination, fluorescent intensity compared to unmodified substrate [4] | k1/k5, mono-ubiquitination vs. degradation of unmodified substrate [4]
1 | CC(=O)N[C@@H](CCCCN)C(=O)N[C@H](C(=O)N[C@@H](CCCNC(=N)N)C(=O)NCC(=O)N[C@H](C(=O)N[C@@H](CCC(=O)O)C(=O)N[C@@H](CCC(=O)O)C(=O)N[C@H](C(=O)N[C@@H](C)C(=O)N[C@@H](CCC(=O)O)C(=O)NCC(=O)N[C@H](C(=O)N[C@H](C(=O)N[C@@H](CC(C)C)C(=O)N[C@@H](CC(C)C)C(=O)N[C@@H](CCCNC(=N)N)C(=O)N[C@@H](CCCNC(=N)N)C(=O)N[C@@H](CCCNC(=N)N)C(=O)NCC(=O)N[C@@H](CC(N)=O)C(=O)N[C@@H](CCCCNC(=O)c1ccc2c(c1)C(=O)OC21c2ccc(O)cc2Oc2cc(O)ccc21)C(=O)N[C@@H](CCCCN)C(=O)N[C@@H](CCCCN)C(=O)N[C@@H](CCCCN)C(N)=O)C(C)C)C(C)C)C(C)C)C(C)C)[C@@H](C)O [Bonger] (Ac-KTRGVEEVAEGVVLLRRRGNK(5FAM)KKK-NH2) | 4.0 (1/min)*10^3 | 0.01 (1/min)*10^3 | 1.0 (1/min)*10^3 | 0.01 (1/min)*10^3 | 0.01 (1/min)*10^3 |  |  |  |  |  |  | 
2 | CC[C@H](C)[C@H](NC(=O)[C@H](Cc1ccc(O)cc1)NC(=O)[C@@H]1CCCN1C(=O)[C@H](C)NC(=O)[C@H](CC(C)C)NC(=O)[C@H](C)NC(=O)[C@H](CCC(=O)O)NC(=O)[C@H](CC(C)C)NC(=O)[C@H](CC(=O)O)NC(=O)[C@H](CC(C)C)NC(=O)[C@H](CC(=O)O)NC(=O)[C@H](C)NC(=O)[C@H](CO)NC(=O)[C@H](C)NC(C)=O)C(=O)N1CCC[C@H]1C(=O)N[C@@H](C)C(=O)N[C@@H](CC(=O)O)C(=O)N[C@@H](CC(=O)O)C(=O)N[C@@H](CC(=O)O)C(=O)N[C@@H](Cc1ccccc1)C(=O)N[C@@H](CCC(N)=O)C(=O)N[C@@H](CC(C)C)C(=O)N[C@@H](CCCNC(=N)N)C(=O)N[C@@H](CCCCNC(=O)c1ccc2c(c1)C(=O)OC21c2ccc(O)cc2Oc2cc(O)ccc21)C(=O)N[C@@H](CCCCN)C(=O)N[C@@H](CCCCN)C(=O)N[C@@H](CCCCN)C(N)=O [HIF-1α] (Ac-ASADLDLEALAPYIPADDDFQLRK(5FAM)KKK-NH2) | 7.0 (1/min)*10^3 | 0.1 (1/min)*10^3 | 0.1 (1/min)*10^3 | 0.4 (1/min)*10^3 | 0.8 (1/min)*10^3 |  |  |  |  |  |  | 
3 | NS(=O)(=O)OC[C@@H]1C[C@@H](n2ccc3c(N[C@H]4CCc5ccccc54)ncnc32)C[C@@H]1O [MLN-4924] |  |  |  |  |  | slightly impaired |  |  |  |  |  | 
4 | CCOC(=O)c1ccc(N2NC(=O)/C(=C/c3ccc([N+](=O)[O-])o3)C2=O)cc1 [PYR-41] |  |  |  |  |  | reduced ubiquitination |  |  |  |  |  | 
5 | CC(=O)N[C@@H](CCCCN)C(=O)N1CCC[C@H]1C(=O)N[C@@H](CC(C)C)C(=O)N[C@@H](CO)C(=O)N[C@@H](CO)C(=O)N[C@@H](CO)C(=O)N[C@H](C(=O)N1CCC[C@H]1C(=O)N[C@@H](CO)C(=O)N[C@@H](CCC(N)=O)C(=O)N[C@@H](CCCCN)C(=O)N[C@H](C(=O)N[C@@H](Cc1ccc(O)cc1)C(=O)N[C@@H](CCC(N)=O)C(=O)NCC(=O)N[C@@H](CO)C(=O)N[C@@H](Cc1ccc(O)cc1)C(=O)NCC(=O)N[C@@H](Cc1ccccc1)C(=O)N[C@@H](CCCNC(=N)N)C(=O)N[C@@H](CC(C)C)C(=O)NCC(=O)N[C@@H](CCCCNC(=O)c1ccc2c(c1)C(=O)OC21c2ccc(O)cc2Oc2cc(O)ccc21)C(=O)N[C@@H](CCCCN)C(=O)N[C@@H](CCCCN)C(=O)N[C@@H](CCCCN)C(N)=O)[C@@H](C)O)C(C)C [p53] (Ac-KPLSSSVPSQKTYQGSYGFRLGK(5FAM)KKK-NH2) |  |  |  |  |  |  | 0.01 (1/min)*10^3 | 0.01 (1/min)*10^3 | 0.01 (1/min)*10^3 | 0.33 (1/min)*10^3 |  | 
6 | K-(PEG)-DVQKADVSSTGQGIDSK(FAM)KKK [SRC3] |  |  |  |  |  |  | 0.01 (1/min)*10^3 | 0.01 (1/min)*10^3 | 0.01 (1/min)*10^3 | 0.33 (1/min)*10^3 | lowest degree of ubiquitination | 
7 | K-(PEG)-KEEKDINNNVKKTK(FAM)KKK [iNOS] |  |  |  |  |  |  | 1.0 (1/min)*10^3 | 0.01 (1/min)*10^3 | 0.01 (1/min)*10^3 | 0.3 (1/min)*10^3 | higher ubiquitination | 1.62
8 | KAAEEEEVSLASTPTDVRDVDIK(FAM)KKK [Cyclin D1] |  |  |  |  |  |  | 0.01 (1/min)*10^3 | 0.01 (1/min)*10^3 | 0.01 (1/min)*10^3 | 1.8 (1/min)*10^3 | lowest degree of ubiquitination | 0.47
9 | KKYSSQTSQDSGNYSNK(FAM)KKK [IFNAR1] |  |  |  |  |  |  | 0.01 (1/min)*10^3 | 0.01 (1/min)*10^3 | 0.01 (1/min)*10^3 | 0.1 (1/min)*10^3 |  | 0.96
10 | KPFLNGGPYHSREQSTDSGLGLGSYK(FAM)KKK [TAZ] |  |  |  |  |  |  | 1.5 (1/min)*10^3 | 0.1 (1/min)*10^3 | 0.5 (1/min)*10^3 | 0.1 (1/min)*10^3 |  | 2.65
